Measurements as given in US11311530B2, “Lewy body disease therapeutic agent containing pyrazoloquinoline derivative” (Eisai R&D Management Co., Ltd., priority 2017, dated 2022).

Assays:
[1] = system: rat with scopolamine-induced cognitive impairment; assay: Novel object recognition test using rats with scopolamine-induced cognitive impairment; assay type: in vivo; settings: for percentage of exploration of the novel object during T2: scopolamine 0.7 mg/kg s.c., male Long Evans rats, mean ± standard error
Protocol: A novel object recognition test using rats with scopolamine-induced cognitive impairment was performed to confirm the effect of improving cognitive impairment induced by an acetylcholine nerve disorder. The novel object recognition test is a test system for assessing cognitive function based on the spontaneous behavioral characteristic of a rodent in which the rodent spends more time exploring a novel object than a familiar object. The test method described in Ennacer etc. Behavioural Brain Research, 31 (1988) pp. 47-51 was partially modified and performed.
Six-week-old male Long Evans rats (the Institute for Animal Reproduction) were subjected to the test. For two days before the test, a process for habituating the rat to the experimental procedure was performed once daily. In the habituation process, administration of a vehicle to the rat was performed, and subsequently, the rat was placed in an empty test apparatus (40 cm×30 cm×H 45 cm) and allowed to explore for 3 minutes, was transferred into a waiting chamber (13 cm×30 cm×H 45 cm) for about 1 minute, and then was returned into the empty test apparatus again and allowed to stay for 5 minutes.
On the day of the test, an acquisition trial (T1) was performed. Compound (I) was administered orally by using a solution of 0.5% methylcellulose in 0.01 M hydrochloric acid as a vehicle 2 hours before T1. Scopolamine (Wako Pure Chemical Industries, Ltd.) was administered subcutaneously by using a saline as a vehicle at a dose of 0.7 mg/kg 30 minutes before T1. […] The behaviors of the rat during T1 and T2 were recorded by a digital video camera and the total exploration time for each object was measured manually using a stopwatch. […]
In the novel object recognition test, a percentage of exploration of the novel object during T2 is considered as an amnesia index that reflects discrimination between the familiar object and the novel object. The percentage of exploration of the novel object was calculated in accordance with the following equation. […]
The results were expressed as mean±standard error. […]

[2] = molecular target: phosphodiesterase 9 (PDE9) (Homo sapiens, UniProt O76083); settings: from Patent Literature 1; cited from earlier work
Chain of phosphodiesterase 9 (PDE9) (O76083 whole entry): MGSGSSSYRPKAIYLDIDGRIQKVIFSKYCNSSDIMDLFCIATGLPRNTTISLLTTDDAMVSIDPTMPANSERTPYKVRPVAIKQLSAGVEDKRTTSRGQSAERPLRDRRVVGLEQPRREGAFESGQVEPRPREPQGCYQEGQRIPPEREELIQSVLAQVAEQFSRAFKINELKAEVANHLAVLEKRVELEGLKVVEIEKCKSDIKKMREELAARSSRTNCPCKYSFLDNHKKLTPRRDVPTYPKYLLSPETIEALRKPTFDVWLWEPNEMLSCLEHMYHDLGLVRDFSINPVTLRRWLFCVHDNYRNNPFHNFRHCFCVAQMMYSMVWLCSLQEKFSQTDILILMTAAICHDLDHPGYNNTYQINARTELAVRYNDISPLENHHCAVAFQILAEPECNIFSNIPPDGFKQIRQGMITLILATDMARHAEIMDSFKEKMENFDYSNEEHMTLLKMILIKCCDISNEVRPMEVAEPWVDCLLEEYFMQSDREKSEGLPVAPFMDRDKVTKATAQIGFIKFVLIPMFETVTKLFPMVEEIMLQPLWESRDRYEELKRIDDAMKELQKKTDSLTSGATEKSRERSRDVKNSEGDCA

COc1ncc(C)c(-c2ccc3c(c2)[nH]c(=O)c2cnn([C@H]4CCOC4)c23)c1C [Compound (I), (S)-7-(2-methoxy-3,5-dimethylpyridin-4-yl)-1-(tetrahydrofuran-3-yl)-1H-pyrazolo[4,3-c]quinolin-4(5H)-one]
percentage of exploration of the novel object during T2 ([1]; 3.3 mg/kg orally 2 hours before T1): 68.5 ± 2.0 % | percentage of exploration of the novel object during T2 ([1]; 10 mg/kg orally 2 hours before T1): 68.5 ± 1.6 % | effect of improving the percentage of exploration of the novel object ([1]; at 3.3 mg/kg and 10 mg/kg, versus disease control group, Dunnett's test, p<0.05): significant effect of improving the percentage of exploration of the novel object | PDE9 inhibitory action [2]: exhibits a PDE9 inhibitory action
